This is an account of results in US8076487B2, “Pyridone derivative and herbicide” (Kumiai Chemical Industry Co., Ltd., priority 2006, dated 2011).

Format in all cases: in vivo
The test system of assay [1] is slender amaranth (Amaranthus viridis L.). Description: Test Example 3: herbicidal effect by application to upland field (foliage treatment). The settings on record: 14th day after application; for herbicidal effect, Slender Amaranth: foliage treatment, 1,000 g active ingredient per 1 hectare, greenhouse. As for the experimental part: (§1) [table] Test Example 3 Test on Herbicidal Effect by Application to Upland Field In a 80 cm2 plastic pot, field soil was filled. Seeds of barnyardgrass (Echinochloa crus-galli (L.) P. Beauv. var. crus-galli), green foxtail (Setaria viridis (L.) P. Beauv.), velvetleaf (Abutilon theophrasti medicus), and slender amaranth (Amaranthus viridis L.) were sown and allowed to grow for two weeks in a greenhouse. Thereafter, the wettable powder prepared according to Formulation Example 1 was diluted in water and a 1,000 liter equivalent amount per 1 hectare so that the active ingredient becomes 1,000 g per 1 hectare was sprayed using a small sprayer from a top of the plants through its entire body for foliage treatment. Then, on the 14th day after the application to the plants grew in a greenhouse, the herbicidal effect was examined in accordance with a standard shown in Table 34.

Assay [2] deals with green foxtail (Setaria viridis (L.) P. Beauv.). The description is as above. The settings on record: 14th day after application; for herbicidal effect, Green Foxtail: foliage treatment, 1,000 g active ingredient per 1 hectare, greenhouse. As for the experimental part: as §1
The subject of assay [3] is barnyardgrass (Echinochloa crus-galli (L.) P. Beauv. var. crus-galli). Described as above. The settings on record: 14th day after application; for herbicidal effect, Barnyardgrass: foliage treatment, 1,000 g active ingredient per 1 hectare, greenhouse. As for the experimental part: as §1
The subject of assay [4] is velvetleaf (Abutilon theophrasti medicus). Described as above. The settings on record: 14th day after application; for herbicidal effect, Velvetleaf: foliage treatment, 1,000 g active ingredient per 1 hectare, greenhouse. How it is done:
as §1

Assay [5] has as its system heartshape false pickerelweed (Monochoria vaginalis (Burm.f.) C.Presl). As to the kind of experiment: Test Example 1: herbicidal effect by soil application to paddy field. The settings on record: paddy field soil application; active ingredient 1,000 g per 1 hectare; wettable powder added dropwise to water surface the day after sowing; examined on the 21st day after application. Summed up: (§2)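 Plants were sown in flooded (3 cm) paddy soil and evaluated for herbicidal effect 21 days after soil application in a greenhouse.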

The test system of assay [6] is Japanese bulrush (Scirpus juncoides Roxb.). The description is as above. The settings on record: paddy field soil application; active ingredient 1,000 g per 1 hectare; wettable powder added dropwise to water surface the day after sowing; examined on the 21st day after application. Summed up: as §2
In assay [7] the test system is early watergrass (Echinochloa oryzicola Vasing). Described as above. The settings on record: paddy field soil application; active ingredient 1,000 g per 1 hectare; wettable powder added dropwise to water surface the day after sowing; examined on the 21st day after application. Summed up:
as §2

Setting [8] is: foliage treatment, plants grown two weeks, 1,000 g active ingredient per hectare.

`CC1CC(C)C(O)=C(C(=O)c2ccc(C(F)(F)F)n(C)c2=O)C1=O` (centres unmarked) [II-7]: the “herbicidal effect, Slender Amaranth” value in assay [1] was 5 (90% or more of herbicidal effect and crop phytotoxicity). Besides, in assay [2], the “herbicidal effect, Green Foxtail” value was 4 (70 to less than 90% of herbicidal effect and crop phytotoxicity). In addition, the “herbicidal effect, Barnyardgrass” value in assay [3] was 4 (70 to less than 90% of herbicidal effect and crop phytotoxicity). The “herbicidal effect, Velvetleaf” value in assay [4] was 5 (90% or more of herbicidal effect and crop phytotoxicity). In addition, the “herbicidal effect, Monochoria vaginalis (Burm. f.) C. Presl” value (“herbicidal effect, Monochoria vaginalis” for short) in assay [5] is 5 (90% or more of herbicidal effect and crop phytotoxicity). Further, the “herbicidal effect, Scirpus juncoides Roxb.” value in assay [6] is 5 (90% or more of herbicidal effect and crop phytotoxicity). In addition, the “herbicidal effect, Echinochloa oryzicola Vasing” value in assay [7] was 5 (90% or more of herbicidal effect and crop phytotoxicity).
With `C=C(C)Cn1c(C(F)(F)F)ccc(C(=O)c2cnn(C)c2O)c1=O` [IV-13], in assay [1], the “herbicidal effect, Slender Amaranth” value was 5 (90% or more of herbicidal effect and crop phytotoxicity). Moreover, in assay [2], the “herbicidal effect, Green Foxtail” value was 5 (90% or more of herbicidal effect and crop phytotoxicity). In addition, in assay [3], the “herbicidal effect, Barnyardgrass” value was 5 (90% or more of herbicidal effect and crop phytotoxicity). In assay [4], the “herbicidal effect, Velvetleaf” value is 5 (90% or more of herbicidal effect and crop phytotoxicity). The “herbicidal effect, Monochoria vaginalis” value in assay [5] is 5 (90% or more of herbicidal effect and crop phytotoxicity). Besides, the “herbicidal effect, Scirpus juncoides Roxb.” value in assay [6] was 5 (90% or more of herbicidal effect and crop phytotoxicity). Also, the “herbicidal effect, Echinochloa oryzicola Vasing” value in assay [7] is 5 (90% or more of herbicidal effect and crop phytotoxicity).
On to `CCCc1ccc(C(=O)C2=C(O)CCCC2=O)c(=O)n1-c1ccccc1` [I-231], for which the “herbicidal effect, Slender Amaranth” value in assay [1] was 4 (70 to less than 90% of herbicidal effect and crop phytotoxicity). In addition, the “herbicidal effect, Green Foxtail” value in assay [2] is 3 (50 to less than 70% of herbicidal effect and crop phytotoxicity). In assay [3], the “herbicidal effect, Barnyardgrass” value was 4 (70 to less than 90% of herbicidal effect and crop phytotoxicity). Further, in assay [4], the “herbicidal effect, Velvetleaf” value was 4 (70 to less than 90% of herbicidal effect and crop phytotoxicity). The “herbicidal effect, Monochoria vaginalis” value in assay [5] is 5 (90% or more of herbicidal effect and crop phytotoxicity). Moreover, in assay [6], the “herbicidal effect, Scirpus juncoides Roxb.” value is 5 (90% or more of herbicidal effect and crop phytotoxicity). The “herbicidal effect, Echinochloa oryzicola Vasing” value in assay [7] is 5 (90% or more of herbicidal effect and crop phytotoxicity).
As for `COC(=O)Nn1c(C(F)(F)F)ccc(C(=O)C2=C(O)CCCC2=O)c1=O` [I-189], the “herbicidal effect, Slender Amaranth” value in assay [1] is 5 (90% or more of herbicidal effect and crop phytotoxicity). Further, the “herbicidal effect, Green Foxtail” value in assay [2] is 4 (70 to less than 90% of herbicidal effect and crop phytotoxicity). Besides, in assay [3], the “herbicidal effect, Barnyardgrass” value was 4 (70 to less than 90% of herbicidal effect and crop phytotoxicity). Besides, the “herbicidal effect, Velvetleaf” value in assay [4] was 5 (90% or more of herbicidal effect and crop phytotoxicity). The “herbicidal effect, Monochoria vaginalis” value in assay [5] is 5 (90% or more of herbicidal effect and crop phytotoxicity). Further, the “herbicidal effect, Scirpus juncoides Roxb.” value in assay [6] was 5 (90% or more of herbicidal effect and crop phytotoxicity). Further, the “herbicidal effect, Echinochloa oryzicola Vasing” value in assay [7] is 5 (90% or more of herbicidal effect and crop phytotoxicity).
For the compound `Cn1ncc(C(=O)c2ccc(C(F)(F)F)n(CC3CCCO3)c2=O)c1OS(=O)(=O)c1ccc([N+](=O)[O-])cc1` (centres unmarked) [IV-142], the “herbicidal effect, Slender Amaranth” value in assay [1] is 5 (90% or more of herbicidal effect and crop phytotoxicity). In assay [2], the “herbicidal effect, Green Foxtail” value was 5 (90% or more of herbicidal effect and crop phytotoxicity). For the same compound, in assay [3], the “herbicidal effect, Barnyardgrass” value is 5 (90% or more of herbicidal effect and crop phytotoxicity). For the same compound, the “herbicidal effect, Velvetleaf” value in assay [4] was 5 (90% or more of herbicidal effect and crop phytotoxicity). In assay [5], the “herbicidal effect, Monochoria vaginalis” value was 5 (90% or more of herbicidal effect and crop phytotoxicity). Also, the “herbicidal effect, Scirpus juncoides Roxb.” value in assay [6] was 5 (90% or more of herbicidal effect and crop phytotoxicity). Besides, the “herbicidal effect, Echinochloa oryzicola Vasing” value in assay [7] is 5 (90% or more of herbicidal effect and crop phytotoxicity).
In the case of `CC(C)=CCCn1c(C(F)(F)F)ccc(C(=O)c2cnn(C)c2O)c1=O` [IV-15], in assay [1], the “herbicidal effect, Slender Amaranth” value was 5 (90% or more of herbicidal effect and crop phytotoxicity). Moreover, the “herbicidal effect, Green Foxtail” value in assay [2] is 5 (90% or more of herbicidal effect and crop phytotoxicity). Moreover, in assay [3], the “herbicidal effect, Barnyardgrass” value was 4 (70 to less than 90% of herbicidal effect and crop phytotoxicity). Besides, in assay [4], the “herbicidal effect, Velvetleaf” value is 5 (90% or more of herbicidal effect and crop phytotoxicity). For the same compound, the “herbicidal effect, Monochoria vaginalis” value in assay [5] was 5 (90% or more of herbicidal effect and crop phytotoxicity). Besides, the “herbicidal effect, Scirpus juncoides Roxb.” value in assay [6] is 5 (90% or more of herbicidal effect and crop phytotoxicity). In assay [7], the “herbicidal effect, Echinochloa oryzicola Vasing” value was 5 (90% or more of herbicidal effect and crop phytotoxicity).
For the compound `COCC(C)n1c(C(F)(F)F)ccc(C(=O)C2=C(O)C3C=CC(C3)C2=O)c1=O` (centres unmarked) [III-44], the “herbicidal effect, Slender Amaranth” value in assay [1] was 5 (90% or more of herbicidal effect and crop phytotoxicity). Further, the “herbicidal effect, Green Foxtail” value in assay [2] is 5 (90% or more of herbicidal effect and crop phytotoxicity). Besides, in assay [3], the “herbicidal effect, Barnyardgrass” value was 4 (70 to less than 90% of herbicidal effect and crop phytotoxicity). In addition, in assay [4], the “herbicidal effect, Velvetleaf” value was 5 (90% or more of herbicidal effect and crop phytotoxicity). Moreover, the “herbicidal effect, Monochoria vaginalis” value in assay [5] is 5 (90% or more of herbicidal effect and crop phytotoxicity). In assay [6], the “herbicidal effect, Scirpus juncoides Roxb.” value is 5 (90% or more of herbicidal effect and crop phytotoxicity). In assay [7], the “herbicidal effect, Echinochloa oryzicola Vasing” value is 5 (90% or more of herbicidal effect and crop phytotoxicity).
Turning to `CC(CCn1c(C(F)(F)F)ccc(C(=O)C2=C(O)CCCC2=O)c1=O)=C(F)F` [I-27], the “herbicidal effect (index), Slender Amaranth” value in assay [1] (setting [8]) was 5 (90% or more of herbicidal effect and crop phytotoxicity). In assay [2] (setting [8]), the “herbicidal effect (index), Green Foxtail” value was 3 (50 to less than 70% of herbicidal effect and crop phytotoxicity). Besides, in assay [3] (setting [8]), the “herbicidal effect (index), Barnyardgrass” value is 4 (70 to less than 90% of herbicidal effect and crop phytotoxicity). Also, the “herbicidal effect (index), Velvetleaf” value in assay [4] (setting [8]) was 5 (90% or more of herbicidal effect and crop phytotoxicity). Besides, the “herbicidal effect, Monochoria vaginalis” value in assay [5] was 5 (90% or more of herbicidal effect and crop phytotoxicity). Besides, in assay [6], the “herbicidal effect, Scirpus juncoides Roxb.” value is 5 (90% or more of herbicidal effect and crop phytotoxicity). The “herbicidal effect, Echinochloa oryzicola Vasing” value in assay [7] is 5 (90% or more of herbicidal effect and crop phytotoxicity).
As to `COc1ccc(-n2c(C(F)(F)F)ccc(C(=O)c3cnn(C)c3O)c2=O)cc1OC` [IV-77], the “herbicidal effect, Slender Amaranth” value in assay [1] is 5 (90% or more of herbicidal effect and crop phytotoxicity). In addition, the “herbicidal effect, Green Foxtail” value in assay [2] was 3 (50 to less than 70% of herbicidal effect and crop phytotoxicity). In addition, the “herbicidal effect, Barnyardgrass” value in assay [3] was 5 (90% or more of herbicidal effect and crop phytotoxicity). Besides, in assay [4], the “herbicidal effect, Velvetleaf” value is 5 (90% or more of herbicidal effect and crop phytotoxicity). The “herbicidal effect, Monochoria vaginalis” value in assay [5] is 5 (90% or more of herbicidal effect and crop phytotoxicity). Besides, in assay [6], the “herbicidal effect, Scirpus juncoides Roxb.” value is 5 (90% or more of herbicidal effect and crop phytotoxicity). In addition, the “herbicidal effect, Echinochloa oryzicola Vasing” value in assay [7] was 5 (90% or more of herbicidal effect and crop phytotoxicity).
As to `Cn1ncc(C(=O)c2ccc(C(F)(F)F)n(CC3CCCO3)c2=O)c1OCc1c(F)cccc1F` (centres unmarked) [IV-136], the “herbicidal effect, Slender Amaranth” value in assay [1] was 5 (90% or more of herbicidal effect and crop phytotoxicity). Further, the “herbicidal effect, Green Foxtail” value in assay [2] is 4 (70 to less than 90% of herbicidal effect and crop phytotoxicity). In addition, the “herbicidal effect, Barnyardgrass” value in assay [3] was 4 (70 to less than 90% of herbicidal effect and crop phytotoxicity). Also, in assay [4], the “herbicidal effect, Velvetleaf” value is 4 (70 to less than 90% of herbicidal effect and crop phytotoxicity). The “herbicidal effect, Monochoria vaginalis” value in assay [5] is 5 (90% or more of herbicidal effect and crop phytotoxicity). Further, in assay [6], the “herbicidal effect, Scirpus juncoides Roxb.” value is 5 (90% or more of herbicidal effect and crop phytotoxicity). The “herbicidal effect, Echinochloa oryzicola Vasing” value in assay [7] is 5 (90% or more of herbicidal effect and crop phytotoxicity).
On to `Cn1nc(C(F)(F)F)c(Cn2c(C(F)(F)F)ccc(C(=O)C3=C(O)CCCC3=O)c2=O)c1OC(F)F` [I-127], for which, in assay [1], the “herbicidal effect, Slender Amaranth” value is 5 (90% or more of herbicidal effect and crop phytotoxicity). Also, in assay [2], the “herbicidal effect, Green Foxtail” value is 5 (90% or more of herbicidal effect and crop phytotoxicity). Also, the “herbicidal effect, Barnyardgrass” value in assay [3] is 5 (90% or more of herbicidal effect and crop phytotoxicity). The “herbicidal effect, Velvetleaf” value in assay [4] was 5 (90% or more of herbicidal effect and crop phytotoxicity). Further, the “herbicidal effect, Monochoria vaginalis” value in assay [5] is 4 (70 to less than 90% of herbicidal effect and crop phytotoxicity). The “herbicidal effect, Scirpus juncoides Roxb.” value in assay [6] was 3 (50 to less than 70% of herbicidal effect and crop phytotoxicity). The “herbicidal effect, Echinochloa oryzicola Vasing” value in assay [7] was 4 (70 to less than 90% of herbicidal effect and crop phytotoxicity).
